Reference: US20170050966A1, “INHIBITING THE TRANSIENT RECEPTOR POTENTIAL A1 ION CHANNEL” (HYDRA BIOSCIENCES, INC., priority 2014, published 2017)
Values after ≈ are worked out from the molar mass of the structure shown. Where two headings read alike, the source gives them in different places.

What was measured:
[1] = Solubility of micronized Compound 2 in McIlvain's citrate-phosphate buffer; format: physicochemical; details: aqueous buffer, thermodynamic from solid, citrate-phosphate buffer pH 2.2 to 8.64, 30 hours, read-out: Solubility of micronized formulation
Procedure: Solubility of a micronized formulation of Compound 2 was further evaluated using McIlvain's citrate-phosphate buffer recipes (0.2M Na2HPO4 and 0.1M citric acid) from pH 2.2 to 8.64. Samples were agitated for 30 hours and sampled, centrifuged, and analyzed by UPLC.

[2] = biological target: T1, human TRPA1 (hTRPA1) (Homo sapiens, UniProt O75762); assay: hTRPA1 IC50 in presence of albumin and plasma, whole-cell patch clamp; format: cell-based; details: for IC50: 20 μM AITC
T1 construct: expressed in transfected cells
T1 sequence (O75762 whole entry): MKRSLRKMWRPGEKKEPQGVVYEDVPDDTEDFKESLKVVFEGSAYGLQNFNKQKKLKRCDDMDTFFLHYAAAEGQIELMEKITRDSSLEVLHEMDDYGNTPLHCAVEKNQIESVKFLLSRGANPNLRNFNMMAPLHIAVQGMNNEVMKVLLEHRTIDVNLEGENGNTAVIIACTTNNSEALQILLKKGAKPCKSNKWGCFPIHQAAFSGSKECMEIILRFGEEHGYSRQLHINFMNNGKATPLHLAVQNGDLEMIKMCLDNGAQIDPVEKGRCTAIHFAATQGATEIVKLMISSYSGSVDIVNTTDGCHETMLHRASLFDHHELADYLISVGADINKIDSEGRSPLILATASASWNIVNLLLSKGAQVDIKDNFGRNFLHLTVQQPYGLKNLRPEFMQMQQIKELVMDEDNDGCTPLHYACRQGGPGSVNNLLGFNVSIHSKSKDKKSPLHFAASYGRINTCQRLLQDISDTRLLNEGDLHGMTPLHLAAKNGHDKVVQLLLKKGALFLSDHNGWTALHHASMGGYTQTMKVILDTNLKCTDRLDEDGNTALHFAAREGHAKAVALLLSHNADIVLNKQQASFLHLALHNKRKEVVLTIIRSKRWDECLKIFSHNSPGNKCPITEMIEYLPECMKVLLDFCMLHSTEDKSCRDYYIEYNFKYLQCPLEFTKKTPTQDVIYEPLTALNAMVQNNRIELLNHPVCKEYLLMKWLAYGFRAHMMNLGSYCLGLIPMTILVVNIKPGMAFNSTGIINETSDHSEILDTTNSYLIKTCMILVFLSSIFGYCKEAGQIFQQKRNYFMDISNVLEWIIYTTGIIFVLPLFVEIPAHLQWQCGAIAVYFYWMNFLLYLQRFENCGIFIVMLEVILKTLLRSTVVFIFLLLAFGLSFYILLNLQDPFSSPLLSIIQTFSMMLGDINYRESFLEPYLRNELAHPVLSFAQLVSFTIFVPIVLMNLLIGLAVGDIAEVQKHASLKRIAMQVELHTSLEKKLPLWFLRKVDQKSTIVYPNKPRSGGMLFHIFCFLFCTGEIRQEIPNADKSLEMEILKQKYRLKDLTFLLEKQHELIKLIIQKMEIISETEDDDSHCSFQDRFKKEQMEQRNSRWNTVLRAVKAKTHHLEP
Text: The change in IC50 block in the presence of albumin and plasma was also studied. It is assumed that the pharmacological effect of a drug correlates to unbound plasma levels, which is known as the “free drug hypothesis”. The aim of this study was to estimate the change in IC50 for block of human TRPA1 (hTRPA1) by Compound 2 in the presence of physiologically relevant concentrations of albumin and plasma (see Table 7). The human form of TRPA1 was used to assess protein binding in all species due to technical issues. The whole-cell patch clamp technique as described in del Camino, D. et al. J Neurosci 74 (2010) 30:15165 was employed to measure current through hTRPA1 upon activation by allyl isothiocyanate (AITC), the active ingredient in mustard oil, in the presence of 1% (w/v) serum albumin or 25% (v/v) plasma from various species including human plasma (hPlasma), human serum albumin (HSA), rat plasma (rPlasma), rat serum albumin (RSA), dog plasma, and sheep serum albumin (sheepSA). Compound 2 was sub-diluted from a 10 mM stock in DMSO to 10 and 100 μM in DMSO, then diluted into Ringer solution at the concentrations referenced in Table 7 and Table 8.

[3] = biological target: T2, rTRPA1 (Rattus norvegicus, UniProt Q6RI86); assay: TRPA1 IC50, whole-cell patch clamp; format: cell-based; details: rTRPA1, 10 μM AITC; read-out: IC50 Inward current
T2 construct: expressed in transfected cells
T2 sequence (Q6RI86 whole entry): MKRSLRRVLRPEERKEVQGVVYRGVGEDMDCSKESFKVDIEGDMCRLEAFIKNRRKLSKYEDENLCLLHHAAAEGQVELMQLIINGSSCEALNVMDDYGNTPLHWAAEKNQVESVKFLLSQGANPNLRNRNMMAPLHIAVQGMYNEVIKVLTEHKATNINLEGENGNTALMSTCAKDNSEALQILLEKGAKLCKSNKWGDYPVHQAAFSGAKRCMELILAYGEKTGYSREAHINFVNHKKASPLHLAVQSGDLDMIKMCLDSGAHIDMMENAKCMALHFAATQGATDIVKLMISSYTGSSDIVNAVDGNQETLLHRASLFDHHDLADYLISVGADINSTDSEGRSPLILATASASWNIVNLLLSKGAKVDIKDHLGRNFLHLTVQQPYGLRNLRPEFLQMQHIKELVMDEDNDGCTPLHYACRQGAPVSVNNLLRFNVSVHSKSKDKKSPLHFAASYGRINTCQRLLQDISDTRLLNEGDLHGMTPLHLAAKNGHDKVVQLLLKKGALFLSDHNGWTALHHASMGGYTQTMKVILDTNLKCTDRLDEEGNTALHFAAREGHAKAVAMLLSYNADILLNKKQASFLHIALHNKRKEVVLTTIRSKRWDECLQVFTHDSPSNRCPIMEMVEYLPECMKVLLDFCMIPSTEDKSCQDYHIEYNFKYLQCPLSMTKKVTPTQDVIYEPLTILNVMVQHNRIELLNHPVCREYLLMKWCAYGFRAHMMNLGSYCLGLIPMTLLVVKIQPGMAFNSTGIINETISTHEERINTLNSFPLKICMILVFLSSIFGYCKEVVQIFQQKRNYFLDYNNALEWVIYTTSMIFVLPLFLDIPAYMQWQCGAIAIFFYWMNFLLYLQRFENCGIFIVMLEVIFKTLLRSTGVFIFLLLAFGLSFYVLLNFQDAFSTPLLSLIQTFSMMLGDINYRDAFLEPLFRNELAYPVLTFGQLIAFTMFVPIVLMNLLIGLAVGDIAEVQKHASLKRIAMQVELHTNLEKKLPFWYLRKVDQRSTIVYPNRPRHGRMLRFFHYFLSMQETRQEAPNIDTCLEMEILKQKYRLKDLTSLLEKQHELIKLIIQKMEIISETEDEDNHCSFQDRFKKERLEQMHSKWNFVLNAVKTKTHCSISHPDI

[4] = Oral PK and bioavailability of micronized Compound 2 suspension; format: in vivo, Sprague-Dawley rats
Procedure: Additional studies were conducted with micronized Compound 2 in rat, dogs (beagles), and cynomolgus monkeys. Animals received a 10 mg/kg dose oral dose of compound formulated as a suspension in 0.5% methyl cellulose in water for injection at a target concentration of 1 mg/mL, and administered a dose volume of 10 mL/kg by oral gavage in rats or fasted dogs and via oral delivery in fasted cynomolgus monkeys. The % F for the rats in these studies was 85%, 36% for the dogs, and 19% for the monkeys. FIG. 11 depicts the pharmacokinetic profile for these species.
Several in vivo studies were performed to characterize the bioavailability of Compound 2. In Sprague-Dawley rats, a single oral dose of 10 mg/kg to 1000 mg/kg of Compound 2 were compared in a series of experiments. Compound 2 used in these studies was recrystallized from ethanol and micronized.

[5] = PK comparison of capsule and suspension formulations; details: monkey, in vivo, po, 250 mg, monkeys
Procedure: Another study was conducted to compare the PK parameters of capsule and suspension formulations of Compound 2. All monkeys were dosed with 250 mg Compound 2. Two groups were dosed with the capsule formulation: one fasted and one allowed food ad libitum. The animals that received the suspension formulation were dosed using a nasogastric tube and were fasted. […] When the PK profile of the capsule formulation was compared in both fasted and fed monkeys, the bioavailability of Compound 2 capsules was numerically greater in fasted monkeys.

[6] = Plasma levels in CFA cold hypersensitivity study; format: in vivo, rat
Text: Table 16 summarizes the average plasma levels of Compound 2 and Compound A. Approximately dose proportional exposures of Compound 2 were observed throughout the dose range tested. Decreased plasma binding of Compound 2 indicates an improved bioavailability of Compound 2 to the subjects over Compound A.

[7] = biological target: CYP3A4 (Homo sapiens, UniProt P08684); assay: CYP450 inhibition at 10 μM; format: biochemical
Chain of CYP3A4 (P08684 whole entry): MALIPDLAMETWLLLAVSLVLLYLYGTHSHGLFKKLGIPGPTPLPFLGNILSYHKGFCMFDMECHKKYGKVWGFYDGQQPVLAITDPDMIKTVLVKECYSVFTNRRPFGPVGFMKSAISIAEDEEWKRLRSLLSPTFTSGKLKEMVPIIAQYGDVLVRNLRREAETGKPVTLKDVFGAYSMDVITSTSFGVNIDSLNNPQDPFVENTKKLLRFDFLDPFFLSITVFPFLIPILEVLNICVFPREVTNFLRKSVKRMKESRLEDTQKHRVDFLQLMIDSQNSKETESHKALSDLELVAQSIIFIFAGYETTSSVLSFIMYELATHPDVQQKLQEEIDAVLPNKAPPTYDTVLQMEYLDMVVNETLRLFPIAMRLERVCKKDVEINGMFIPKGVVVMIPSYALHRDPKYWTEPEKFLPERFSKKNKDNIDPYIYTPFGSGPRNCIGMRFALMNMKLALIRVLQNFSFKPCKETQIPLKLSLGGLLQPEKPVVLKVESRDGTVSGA

[8] = CYP450 reaction phenotyping in human liver microsomes; format: in vitro ADME; details: human liver microsomes with and without selective CYP450 inhibitors
Procedure: CYP450 reaction phenotyping of Compound 2 was conducted by incubating the test article with human liver microsomes in the presence and absence of selective CYP450 inhibitors.

[9] = test system: sprague-dawley rats; assay: Hepatotoxicity safety profile, serum biomarkers; format: in vivo; details: for ALP d28 / ALT d28 / AST d28 / GGT d28: day 28
Procedure: Compound 2 in the vehicle (0.5% methylcellulose [400 cps]) was administered orally by gavage once daily for a minimum of 28 consecutive days to 3 groups of sprague-dawley rats from Charles River Laboratories. Each group received one dosage level. Dosage levels were 30, 100, and 300 mg/kg/day for each group. […] The dose volume was 10 ml/kg for all groups. Hepatoxicity was measured via the serum biomarkers of alanine aminotransferease [ALT], aspartate aminotransferase [AST], alkaline phosphastase [ALP] and gamma-glutamyl transferase [GGT] which represent hepatotoxicity or bile duct injury.

[10] = biological target: CYP2C19 (Homo sapiens, UniProt P33261); assay: in vitro; details: probe Mephenytoin
Chain of CYP2C19 (P33261 whole entry): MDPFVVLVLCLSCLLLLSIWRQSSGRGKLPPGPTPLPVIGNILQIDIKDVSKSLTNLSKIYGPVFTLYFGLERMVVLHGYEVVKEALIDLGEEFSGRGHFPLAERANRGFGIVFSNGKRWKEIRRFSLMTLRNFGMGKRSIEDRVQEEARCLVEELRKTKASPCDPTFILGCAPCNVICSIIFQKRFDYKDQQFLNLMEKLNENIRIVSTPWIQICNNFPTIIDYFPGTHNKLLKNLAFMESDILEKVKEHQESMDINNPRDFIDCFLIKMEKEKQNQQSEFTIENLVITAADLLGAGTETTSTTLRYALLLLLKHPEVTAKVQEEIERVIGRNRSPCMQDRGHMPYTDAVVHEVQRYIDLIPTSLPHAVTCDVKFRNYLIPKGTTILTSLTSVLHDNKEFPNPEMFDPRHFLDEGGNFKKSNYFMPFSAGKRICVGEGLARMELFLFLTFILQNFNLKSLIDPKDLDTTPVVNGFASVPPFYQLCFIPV

solubility at 30 h [1]: 200 to 1300 µg/mL (≈ 367 to 2390 µM)
IC50 ([2]; 1% (w/v) rat serum albumin, read-out: IC50 + RSA): 95 ± 9 nM
IC50 ([2]; 1% (w/v) sheep serum albumin, read-out: IC50 + SheepSA): 70 ± 10 nM
IC50 ([2]; 25% (v/v) dog plasma, read-out: IC50 + dog Plasma): 221 ± 54 nM
IC50 ([2]; 25% (v/v) human plasma, read-out: IC50 + hPlasma): 95 ± 2 nM
IC50 ([2]; 25% (v/v) rat plasma, read-out: IC50 + rPlasma): 68 ± 8 nM
Fold Shift ([2]; IC50 + RSA): 14X
Fold Shift ([2]; IC50 + SheepSA): 10X
Fold Shift ([2]; IC50 + dog Plasma): 32X
Fold Shift ([2]; IC50 + hPlasma vs IC50 in absence of serum): 14 X
Fold Shift ([2]; IC50 + rPlasma): 10X
binding to plasma proteins based on the shift in IC50 ([2]; across the four species tested): 90-97%
time to complete block and reversal upon washout ([2]; hTRPA1 currents): 2 to 3 min
IC50 [3]: 22.9 ± 4.6 nM
Exposures based on AUC and Cmax versus dose ([4]; Sprague-Dawley rats, single oral dose 10 mg/kg to 1000 mg/kg): increased with doses up to 1000 mg/kg
bioavailability ([4]; Sprague-Dawley, rat, plasma, rats, 10 mg/kg oral, micronized suspension in 0.5% methyl cellulose): 85%
bioavailability ([5]; Capsule (fasted)): 13%
bioavailability ([5]; Capsule (fed)): 10%
bioavailability ([5]; Suspension (fasted)): 7.8%
PLASMA ([6]; 0.3 mg/kg PO): 70 ± 11 ng/mL
PLASMA ([6]; 1 mg/kg PO): 265 ± 56 ng/mL
PLASMA ([6]; 3 mg/kg PO): 800 ± 160 ng/mL
PLASMA ([6]; 10 mg/kg PO): 2780 ± 425 ng/mL
inhibition at 10 µM ([7]; probe Midazolam, 3A4, substrate Midazolam): 0%
inhibition at 10 µM ([7]; probe Testosterone, 3A4, substrate Testosterone): 2.8%
CYP450 isozymes involved in in vitro metabolism [8]: involved mainly the CYP3A4 isozymes
inhibition at 10 µM [10]: 37.1%
Compound: C[C@@H](C(=O)Nc1ccnc(-c2cnc(N3CCC[C@H]3C(F)(F)F)nc2)n1)n1cnc2c1c(=O)n(C)c(=O)n2C [Compound 2, (S)-2-(1,3-dimethyl-2,6-dioxo-2,3-dihydro-1H-purin-7(6H)-yl)-N-(2′-((S)-2-(trifluoromethyl)pyrrolidin-1-yl)-[2,5′-bipyrimidin]-4-yl)propanamide]
ALP d28 ([9]; 30 mg/kg/day oral): 168.0 U/L
ALT d28 ([9]; 30 mg/kg/day oral): 33.0 U/L
AST d28 ([9]; 30 mg/kg/day oral): 98.0 U/L
GGT d28 ([9]; 30 mg/kg/day oral): 0.0 U/L
ALP d28 ([9]; 100 mg/kg/day oral): 185.0 U/L
ALT d28 ([9]; 100 mg/kg/day oral): 34.0 U/L
AST d28 ([9]; 100 mg/kg/day oral): 100.0 U/L
GGT d28 ([9]; 100 mg/kg/day oral): 0.0 U/L
ALP d28 ([9]; 300 mg/kg/day oral): 163.0 U/L
ALT d28 ([9]; 300 mg/kg/day oral): 43.0 U/L
AST d28 ([9]; 300 mg/kg/day oral): 115.0 U/L
GGT d28 ([9]; 300 mg/kg/day oral): 0.0 U/L
serum biomarkers of hepatotoxicity (ALT, AST, ALP, GGT) ([9]; sprague-dawley rats, oral once daily for 28 days): did not elevate the serum biomarkers up to and including a dose of 300 mg/kg
